Assay results as given in PMC6031733, “Adding a C-terminal Cysteine (CTC) Can Enhance the Bactericidal Activity of Three Different Antimicrobial Peptides” (Frontiers in Microbiology, 2018).
Read-outs that look alike come from different tables or passages of the source. Positions of bridges follow the written chain, without caps; N, C: chain ends. Non-standard residues stand in square brackets, D forms with d. Residues, ends and D or L forms follow the SMILES beside them. No end group written: not given here. *: point of attachment. X1 = CC[C@H](C)CCCCC(=O)*; Dab = NCC[C@H](N)C(=O)O

Assays:
ICR mice [1] = experiment: In vivo acute toxicity, survival
Method: (§1) To measure in vivo the acute toxicity, 3-week-old male ICR mice (∼20 g) were purchased from BioLASCO (Taiwan). The mice were randomly separated into 6 groups, and were intraperitoneally injected with D-150-177C at concentrations of 20, 40, 60, and 80 mg/kg. A last-line antibiotic, polymyxin B (20 and 50 mg/kg), was used as a control. Each group contained 5 mice. At 1 day post-injection, blood sample was collected from each mouse. The liver function of mice was determined by measuring the ALT level in the blood. The survival rates of injected mice were monitored for 7 days.
(§2) Polymyxins are the last-line antibiotics, but could be toxic at higher dose. We compared the acute toxicity of peptide D-150-177C with polymyxin B using ICR mice. The mice (∼20 g) were i.p. injected with D-150-177C peptide (20–80 mg/kg body weight). Polymyxin B (50 mg/kg body weight) was used as a control antibiotic. […] In contrast, all mice died of polymyxin B at 50 mg/kg.

[2] = test system: colistin-sensitive A. baumannii ATCC17978; experiment: Mouse lung infection model, survival; format: in vivo; conditions: C57BL/6JNarl mice, i.t. colistin-sensitive A. baumannii ATCC17978; i.p. daily for three days; data not shown
[3] = test system: colistin-resistant A. baumannii TCGH 46709; experiment: Mouse lung infection model, survival; format: in vivo; conditions: C57BL/6JNarl mice, i.t. A. baumannii TCGH 46709 3.5 × 10^8 CFU/mouse, three consecutive days, 16 mice/group, 3 days
Method: (§3) We determined the in vivo protection efficacy of peptides in two different mouse infection models. In the mouse sepsis model ([Chen et al., 2016]), 3-week-old male ICR mice (∼20 g) were purchased from BioLASCO (Taiwan). These mice were inoculated intraperitoneally with S. aureus ATCC 19636 (4 × 10^6 CFU/mouse). At 2 h post-inoculation, the mice were randomly separated into 5 groups and received peptides (5 or 10 mg/kg) or the PBS control, respectively. Each group contained 5 mice. Mortality was monitored daily for 7 days following the bacterial inoculation. This experiment was repeated twice. In the mouse lung infection model ([Yang et al., 2016]), 6–8-week-old male C57BL/6JNarl mice (∼27 g) were purchased from National Laboratory Animal Center, Taiwan. The inoculums (3.5 × 10^8 CFU/mouse) were prepared by 1:1 mixing of LB culture and 10% mucin (Sigma). All mice were randomly separated into 3 groups and anesthetized by Isoflurane via inhalation, and inoculated intra-tracheally with colistin-resistant A. baumannii TCGH 46709. Two hours after inoculation, the mice were intraperitoneally injected daily with either colistin (5 mg/kg) ([Fishbain and Peleg, 2010]) or HBcARD derivative peptides (5 or 10 mg/kg), respectively, for three consecutive days. Each group contained 8 mice. Mortality was monitored every 12 h following the bacterial inoculation. This experiment was repeated twice.
C57BL/6JNarl mice (∼27 g) were anesthetized and intra-tracheally inoculated with A. baumannii (3.5 × 10^8 CFU/mouse). At 2 h post-inoculation, the mice received i.p. injection of either D-150-177C or colistin, respectively, for three consecutive days (1 injection per day).

S. aureus ATCC 19636 = experiment: Mouse sepsis model, survival; format: in vivo; conditions: ICR mice
Method: as §3
The mice (∼20 g) were i.p. (intraperitoneally) inoculated with S. aureus ATCC19636 (4 × 10^6 CFU/mouse), followed by treatments with peptides or the PBS control at 2 h post-inoculation. We monitored the survival rate for 7 days (Figure 2B). All mice treated with PBS (10/10) died at day 1 post-inoculation. […] In contrast, administration of L-150-177C peptide at the same dose protected 70% of mice (7/10) from death (p < 0.05). It appears that the C-terminal cysteine is very critical for the in vivo protection as well. Next, we compared the in vivo protection efficacy of HBcARD 150-177C peptides containing either D-form or L-form arginines in this same model. The protection efficacy of peptide L-150-177C was 30% (3/10) at 5 mg/kg, whereas D-150-177C can protect all mice (10/10) from death at the same dose (Figure 2B).

ICR mice [4] = experiment: In vivo acute toxicity, serum ALT (liver injury)
Method: as §1, §2

A. baumannii ATCC17978 [5] = conditions: A. baumannii ATCC17978 strain
Method: (§4) Peptides were diluted in the same buffer. […] All peptides were tested in triplicate. […] Peptides were also diluted in MH broth. […] All peptides were tested in duplicate.

K. pneumoniae ATCC13884 = format: cell-based, Klebsiella pneumoniae
Method: as §4

A. baumannii ATCC17978 [6] = format: cell-based, Acinetobacter baumannii
Method: as §4

P. aeruginosa ATCC9027 = format: cell-based, Pseudomonas aeruginosa
Method: as §4

S. aureus ATCC19636 = format: cell-based, Staphylococcus aureus; conditions: for MBC: pH 7.2
Method: as §4

S. aureus ATCC25923 = experiment: Minimum bactericidal concentration (MBC); format: cell-based, Staphylococcus aureus; conditions: phosphate buffer pH 7.2, 37°C, 3 h, zero colony, triplicate
Method: as §4

S. aureus ATCC29213 = experiment: Minimum bactericidal concentration (MBC); format: cell-based, Staphylococcus aureus; conditions: phosphate buffer pH 7.2, 37°C, 3 h, zero colony, triplicate
Method: as §4

A. baumannii ATCC19606 = experiment: Minimum bactericidal concentration (MBC); format: cell-based, Acinetobacter baumannii; conditions: phosphate buffer pH 7.2, 37°C, 3 h, zero colony, triplicate
Method: as §4

A. baumannii ATCC45530 = experiment: Minimum bactericidal concentration (MBC); format: cell-based, Acinetobacter baumannii; conditions: A. baumannii ATCC45530 (so in the source); phosphate buffer pH 7.2, 37°C, 3 h; zero colony; triplicate
Method: as §4

A. baumannii ATCC46709 = experiment: Minimum bactericidal concentration (MBC); format: cell-based, Acinetobacter baumannii; conditions: A. baumannii ATCC46709 (so in the source); phosphate buffer pH 7.2, 37°C, 3 h; zero colony; triplicate
Method: as §4

P. aeruginosa ATCC27853 = experiment: Minimum bactericidal concentration (MBC); format: cell-based, Pseudomonas aeruginosa; conditions: phosphate buffer pH 7.2, 37°C, 3 h, zero colony, triplicate
Method: as §4

E. coli ATCC25922 = experiment: Minimum bactericidal concentration (MBC); format: cell-based, Escherichia coli; conditions: phosphate buffer pH 7.2, 37°C, 3 h, zero colony, triplicate
Method: as §4

[7] = treated mice, all tissues; ref Chen et al., 2013; cited from earlier work
Description: To reduce the cost for D-amino acids in peptide synthesis, we engineered peptides DL-150-177C and LD-150-177C, which contain only approximately 50 ...

[8] = S. aureus ATCC19636 4 × 10^6 CFU/mouse i.p., peptide 5 mg/kg at 2 h post-inoculation, 7 days, n = 10/group (Figure 2B)
[9] = S. aureus ATCC19636, 10^6 CFU/ml in 10 mM sodium phosphate, 50 mM NaCl, 37°C, 3 h, plated on MH agar, zero colony, triplicate
[10] = A. baumannii ATCC17978, phosphate buffer pH 7.2, 37°C, 3 h, zero colony, triplicate
[11] = P. aeruginosa ATCC9027, phosphate buffer pH 7.2, 37°C, 3 h, zero colony, triplicate

C[C@@H](O)[C@H](NC(=O)[C@@H](CCCNC(=N)N)NC(=O)[C@@H](CCCNC(=N)N)NC(=O)[C@@H](CCCNC(=N)N)NC(=O)[C@@H]1CCCN1C(=O)[C@H](CO)NC(=O)[C@@H](CCCNC(=N)N)NC(=O)CNC(=O)[C@@H](CCCNC(=N)N)NC(=O)[C@@H](CCCNC(=N)N)NC(=O)[C@H](N)CCCNC(=N)N)C(=O)N1CCC[C@H]1C(=O)N[C@@H](CO)C(=O)N1CCC[C@H]1C(=O)N[C@H](CCCNC(=N)N)C(=O)N[C@H](CCCNC(=N)N)C(=O)N[C@H](CCCNC(=N)N)C(=O)N[C@H](CCCNC(=N)N)C(=O)N[C@@H](CO)C(=O)N[C@@H](CCC(N)=O)C(=O)N[C@@H](CO)C(=O)N1CCC[C@H]1C(=O)N[C@H](CCCNC(=N)N)C(=O)N[C@H](CCCNC(=N)N)C(=O)N[C@H](CCCNC(=N)N)C(=O)N[C@H](CCCNC(=N)N)C(=O)N[C@@H](CO)C(=O)N[C@@H](CS)C(=O)O [D-150-177C] (H-[dR][dR][dR]G[dR]SP[dR][dR][dR]TPSP[dR][dR][dR][dR]SQSP[dR][dR][dR][dR]SC-OH; N-terminus and C-terminus assumed)
LD50 (ICR mice [1]; i.p., estimated from survival at 20-80 mg/kg): ~75 mg/kg
survival rate (ICR mice [1]; single i.p. 20 mg/kg, 7 days, 5 mice/group): 100%
survival rate (ICR mice [1]; single i.p. 40 mg/kg, 7 days, 5 mice/group): 100%
survival rate (ICR mice [1]; single i.p. 60 mg/kg, 7 days, 5 mice/group): 80%
survival rate (ICR mice [1]; single i.p. 80 mg/kg, 7 days, 5 mice/group): 40%
survival rate [2]: comparable to that of colistin treatment
survival rate (mice protected from death) ([3]; 5 mg/kg/day i.p. from 2 h): 62.5%
survival rate (mice protected from death) ([3]; 10 mg/kg/day i.p. from 2 h): 87.5%
survival rate (S. aureus ATCC 19636; [8]): 100%
survival rate (S. aureus ATCC 19636; S. aureus sepsis, peptide 5 mg/kg at 2 h post-inoculation, n = 10/group, D-arginine substitution comparison (Figure 4)): protected all mice from death
ALT level compared with polymyxin B at 20 mg/kg (ICR mice [4]; i.p. 20 mg/kg, serum at day 1): slight increase
ALT level compared with polymyxin B at 20 mg/kg (ICR mice [4]; i.p. 40 mg/kg, serum at day 1): slight increase
ALT level compared with polymyxin B at 20 mg/kg (ICR mice [4]; i.p. 60 mg/kg, serum at day 1, P < 0.01): significantly higher
average ALT value (ICR mice [4]; i.p. 60 mg/kg, serum at day 1 post-injection): less than 100 IU/L

CC[C@H](C)CCCCC(=O)N[C@@H](CCN)C(=O)N[C@H](C(=O)N[C@@H](CCN)C(=O)N[C@H]1CCNC(=O)[C@H]([C@@H](C)O)NC(=O)[C@H](CCN)NC(=O)[C@H](CCN)NC(=O)[C@H](CC(C)C)NC(=O)[C@@H](CC(C)C)NC(=O)[C@H](CCN)NC1=O)[C@@H](C)O [colistin, reference compound] (X1-[Dab]T[Dab][Dab][Dab][dL]L[Dab][Dab]T; lactam 4-C (inferred); N-terminus assumed)
MIC (A. baumannii ATCC17978 [5]): around 4 mg/L
survival rate (mice protected from death) ([3]; 5 mg/kg/day i.p. from 2 h): 12.5%

NAKDYKGAAAEFPKWNKAGGRVLAGLVKRRKC [LysinC]
MBC (K. pneumoniae ATCC13884; ATCC13884, 3 h, pH 7.2): 128 mg/L
decrease in MBC relative to parental peptide without C-terminal cysteine (K. pneumoniae ATCC13884; K. pneumonia): > 8 fold
decrease in MBC relative to parental peptide without C-terminal cysteine (A. baumannii ATCC17978 [6]; A. baumannii): 32 fold
MBC (A. baumannii ATCC17978 [6]; ATCC17978, 3 h, pH 7.2): 32 mg/L
MBC (P. aeruginosa ATCC9027; ATCC9027, 3 h, pH 7.2): 16 mg/L
decrease in MBC relative to parental peptide without C-terminal cysteine (P. aeruginosa ATCC9027; P. aeruginosa): 4 fold
MBC (S. aureus ATCC19636; ATCC19636, 3 h): 128 mg/L
decrease in MBC relative to parental peptide without C-terminal cysteine (S. aureus ATCC19636; S. aureus): > 8 fold

RRRGRSPRRRTPSPRRRRSC [150-171C]
MBC (S. aureus ATCC19636; [9]): > 57.2 mg/L

RRRGRSPRRRTPSPRRRRSQSPRRRRSC [150-177C]
MBC (S. aureus ATCC25923): 7.1 mg/L
MBC (S. aureus ATCC29213): 7.1 mg/L
MBC (A. baumannii ATCC19606): 0.9 mg/L
MBC (A. baumannii ATCC45530): 1.8 mg/L
MBC (A. baumannii ATCC46709): 3.6 mg/L
MBC (P. aeruginosa ATCC27853): 7.1 mg/L
MBC (A. baumannii ATCC17978 [6]; [10]): 1.8 mg/L
MBC (P. aeruginosa ATCC9027; [11]): 7.1 mg/L
MBC (E. coli ATCC25922): 7.1 mg/L
survival rate (S. aureus ATCC 19636; [8]): 30%
survival rate (S. aureus ATCC 19636; S. aureus ATCC19636 4 × 10^6 CFU/mouse i.p., peptide 10 mg/kg at 2 h post-inoculation, 7 days, n = 10/group (Figure 2B)): 70%
MBC (S. aureus ATCC19636; [9]): 7.1 mg/L

RRRRSQSPRRRRSC [164-177C]
MBC (S. aureus ATCC19636; [9]): > 57.2 mg/L

RRRTPSPRRRRSQSPRRRRSC [157-177C]
MBC (S. aureus ATCC19636; [9]): > 57.2 mg/L

TVVRRRGRSPRRRTPSPRRRRSQSPRRRRSQSRESQC [147-183]
MBC (S. aureus ATCC25923): 18.3 mg/L
MBC (S. aureus ATCC29213): 18.3 mg/L
MBC (A. baumannii ATCC19606): 2.3 mg/L
MBC (A. baumannii ATCC45530): 2.3 mg/L
MBC (A. baumannii ATCC46709): 4.6 mg/L
reduction of bacterial burdens in spleen, liver, and blood [7]: approximately 100 fold
MBC (P. aeruginosa ATCC27853): 9.2 mg/L
MBC (A. baumannii ATCC17978 [6]; [10]): 2.3 mg/L
MBC (P. aeruginosa ATCC9027; [11]): 9.2 mg/L
MBC (E. coli ATCC25922): 18.3 mg/L
MBC (S. aureus ATCC19636; [9]): 18.3 mg/L

polymyxin B [reference compound]
survival (ICR mice [1]; single i.p. 50 mg/kg, 7 days, 5 mice/group): all mice died
